Assay results reported in US11571407B2, “Bicalutamide analogs or (S)-bicalutamide as exocytosis activating compounds for use in the treatment of a lysosomal storage disorder or glycogenosis” (BCN PEPTIDES, S.A., priority 2013, dated 2023).
Marks after values point to notes of the source that are not given here.

Assays:
[1] = tested on: fibroblasts from patients affected by different lysosomal storage diseases; assay: Determination of lysosomal exocytosis (β-hexosaminidase activity in the culture medium); type: cell-based, human; conditions: vs untreated
Experimental: (§1) Fibroblasts from thirteen patients affected by seven different lysosomal storage diseases (Fabry, Gaucher, Hurler, Niemann-Pick type A/B, Sanfilippo A, Sanfilippo B and Tay-Sachs) were cultured in DMEM (Dulbecco's modified Eagles medium) with 10% fetal bovine serum and in the presence of antibiotics (penicillin and streptomycin), at 37° C. with 5% CO2. All reagents were purchased from PAA Laboratories (Velizy-Villacoublay, France). The fibroblasts of the patients were selected on the basis of availability of fibroblasts and measurable residual activity. The use of human samples was approved by the Ethical Committee of Hospital Clinic, Barcelona
Fibroblasts cultured for 72 h in 24 well-plates in the presence or absence of bicalutamide, (S)-bicalutamide, (S)-bicalutamide analogs or (R)-bicalutamide at different concentrations in triplicate (10 nmol/L, 100 nmol/L, 1 μmol/L, 10 μmol/L, 50 μmol/L and 100 μmol/L), were rinsed with physiological saline. The cells were lysed by using 3 freeze-thaw cycles. Then protein concentration was determined by using the Lowry method. Protein lysates (10 μg) were seeded in 96-well plates and the enzymatic activity of the enzyme involved in each disease was determined in triplicate by means of fluorimetric artificial substrates: 4-methylumbelliferyl-α-N-sulphoglucosaminide for Sanfilippo A, 4-methylumbelliferyl-2-acetamido-2 deoxy-α-D-glucopyranoside for Sanfilippo B, 4-methylumbelliferyl-α-L-iduronide for Hurler, 4-methylumbelliferyl-N-acetyl-β-D-glucosaminide for Tay-sachs, 4-methylumbelliferyl-β-D-glucopyranoside for Gaucher, 4-methylumbelliferyl-α-Galactopiranosid for Fabry disease, and 6-hexadecanoylamino-4-methylumbelliferyl-P-colline for Niemann-Pick type AB. The activity of the enzyme β-hexosaminidase was assayed by using 4-methylumbelliferyl-2 acetamido-2 deoxy-β-D-glucopyranoside as artificial substrate [Annunziata et al., Study of influence of sex and age on human serum lysosomal enzymes by using 4-methylumbelliferyl substrates. Clin. Chim. Acta.
Lysosomal exocytosis was monitorized by measuring the enzymatic activity of the lysosomal enzyme β-hexosaminidase in the culture medium [Xu M, et al, δ-Tocopherol reduces lipid accumulation in Niemann-Pick type C1 and Wolman cholesterol storage disorders. […] The fibroblasts were previously treated with different concentrations of bicalutamide, (S)-bicalutamide or (R)-bicalutamide (10 nmol/L, 100 nmol/L, 1 μmol/L, 10 μmol/L, 50 μmol/L and 100 μmol/L) in triplicate in 24-well plates. At 0, 24, 48 and 72 hours, 30 μL of culture medium was aliquoted for the subsequent β-hexosaminidase activity assay.
Fibroblasts from two patients affected by Sanfilippo B and Hurler diseases were treated with different concentrations of bicalutamide (racemic mixture at increasing concentrations of 0.01, 0.1, 1, 10 and 100 μM). And the increase in lysosomal exocytosis was determined by analyzing the enzymatic activity of the lysosomal enzyme β-hexosaminidase in the culture medium.
Fibroblasts from thirteen patients affected by different lysosomal storage diseases (four Sanfilippo B disease patients with different genotypes, three Sanfilippo A disease patients with different genotypes, two Tay-Sachs disease patients with the same genotype, one Gaucher disease patient, one Niemann-pick type A/B disease patient, one Hurler disease patient, and one Fabry disease patient) were independently treated with different concentrations of (R)- and (S)-bicalutamide (50 and 100 μM) for 72 hours.

[2] = tested on: fibroblasts from patients affected by different lysosomal storage diseases; assay: Determination of glycosaminoglycans (GAGs), 1,9-dimethylmethylene blue (DMB) assay; type: cell-based, human; conditions: vs untreated
Experimental: as §1
Glycobiology. […] The fibroblasts were cultured in triplicate in 6-well plates and they were harvested 72 hours after treatment. DMB absorbance was measured in duplicate at 656 nm with a microplate reader (POLARstar Omega, BMG LABTECH, Offenburg, Germany).
Fibroblasts from three patients affected by Sanfilippo B disease and one patient affected by Hurler disease were treated with increasing concentrations of bicalutamide (racemic mixture at increasing concentrations of 0.01, 0.1, 1, 10 and 100 μM). Glycosaminoglycans (GAGs) levels were quantified with the 1,9-dimethylmethylene blue (DMB) assay.
Fibroblasts from seven patients affected by different diseases derived from lysosomal storage (three Sanfilippo B disease patients with different genotypes, one Sanfilippo A disease patient, one Tay-Sachs disease patient, one Niemann-Pick type A/B disease patient and one Hurler disease patient) were independently treated with different concentrations of (R)- and (S)-bicalutamide (50 and 100 μM).

CC(O)(CS(=O)(=O)c1ccc(F)cc1)C(=O)Nc1ccc(C#N)c(C(F)(F)F)c1 (racemic) [Racemic Bicalutamide]
Increase in lysosomal Exocytosis (%) ([1]; Table 1 patient 1, Sanfilippo B fibroblasts, 10 nM): 31* % | Increase in lysosomal Exocytosis (%) ([1]; Table 1 patient 1, Sanfilippo B fibroblasts, 100 nM): 23* % | Increase in lysosomal Exocytosis (%) ([1]; Table 1 patient 1, Sanfilippo B fibroblasts, 1 μM): 49% | Increase in lysosomal Exocytosis (%) ([1]; Table 1 patient 1, Sanfilippo B fibroblasts, 10 μM): 45% | Increase in lysosomal Exocytosis (%) ([1]; Table 1 patient 1, Sanfilippo B fibroblasts, 100 μM): 100* % | Increase in lysosomal Exocytosis (%) ([1]; Table 1 patient 2, Hurler fibroblasts, 10 nM): 14% | Increase in lysosomal Exocytosis (%) ([1]; Table 1 patient 2, Hurler fibroblasts, 100 nM): 13% | Increase in lysosomal Exocytosis (%) ([1]; Table 1 patient 2, Hurler fibroblasts, 1 μM): 9% | Increase in lysosomal Exocytosis (%) ([1]; Table 1 patient 2, Hurler fibroblasts, 10 μM): 3% | Increase in lysosomal Exocytosis (%) ([1]; Table 1 patient 2, Hurler fibroblasts, 100 μM): 8% | Increase in lysosomal Exocytosis (%) ([1]; Table 1 patient 3, Control fibroblasts, 10 nM): 0% | Increase in lysosomal Exocytosis (%) ([1]; Table 1 patient 3, Control fibroblasts, 100 nM): 27% | Increase in lysosomal Exocytosis (%) ([1]; Table 1 patient 3, Control fibroblasts, 1 μM): 13% | Increase in lysosomal Exocytosis (%) ([1]; Table 1 patient 3, Control fibroblasts, 10 μM): 12* % | Increase in lysosomal Exocytosis (%) ([1]; Table 1 patient 3, Control fibroblasts, 100 μM): 13* % | Decrease of GAGs (%) ([2]; Table 2 patient 1, Sanfilippo B fibroblasts, 10 nM): 17% | Decrease of GAGs (%) ([2]; Table 2 patient 1, Sanfilippo B fibroblasts, 100 nM): 25% | Decrease of GAGs (%) ([2]; Table 2 patient 1, Sanfilippo B fibroblasts, 1 μM): 17% | Decrease of GAGs (%) ([2]; Table 2 patient 1, Sanfilippo B fibroblasts, 10 μM): 22* % | Decrease of GAGs (%) ([2]; Table 2 patient 1, Sanfilippo B fibroblasts, 100 μM): 54* % | Decrease of GAGs (%) ([2]; Table 2 patient 2, Sanfilippo B fibroblasts, 10 nM): 0% | Decrease of GAGs (%) ([2]; Table 2 patient 2, Sanfilippo B fibroblasts, 100 nM): 16% | Decrease of GAGs (%) ([2]; Table 2 patient 2, Sanfilippo B fibroblasts, 1 μM): 0% | Decrease of GAGs (%) ([2]; Table 2 patient 2, Sanfilippo B fibroblasts, 10 μM): 0% | Decrease of GAGs (%) ([2]; Table 2 patient 2, Sanfilippo B fibroblasts, 100 μM): 20% | Decrease of GAGs (%) ([2]; Table 2 patient 3, Sanfilippo B fibroblasts, 10 nM): 53% | Decrease of GAGs (%) ([2]; Table 2 patient 3, Sanfilippo B fibroblasts, 100 nM): 13% | Decrease of GAGs (%) ([2]; Table 2 patient 3, Sanfilippo B fibroblasts, 1 μM): 33% | Decrease of GAGs (%) ([2]; Table 2 patient 3, Sanfilippo B fibroblasts, 10 μM): 33% | Decrease of GAGs (%) ([2]; Table 2 patient 3, Sanfilippo B fibroblasts, 100 μM): 0% | Decrease of GAGs (%) ([2]; Table 2 patient 4, Hurler fibroblasts, 10 nM): 0% | Decrease of GAGs (%) ([2]; Table 2 patient 4, Hurler fibroblasts, 100 nM): 0% | Decrease of GAGs (%) ([2]; Table 2 patient 4, Hurler fibroblasts, 1 μM): 0% | Decrease of GAGs (%) ([2]; Table 2 patient 4, Hurler fibroblasts, 10 μM): 0% | Decrease of GAGs (%) ([2]; Table 2 patient 4, Hurler fibroblasts, 100 μM): 0% | Decrease of GAGs (%) ([2]; Table 2 patient 5, Control fibroblasts, 10 nM): 0% | Decrease of GAGs (%) ([2]; Table 2 patient 5, Control fibroblasts, 100 nM): 0% | Decrease of GAGs (%) ([2]; Table 2 patient 5, Control fibroblasts, 1 μM): 0% | Decrease of GAGs (%) ([2]; Table 2 patient 5, Control fibroblasts, 10 μM): 0% | Decrease of GAGs (%) ([2]; Table 2 patient 5, Control fibroblasts, 100 μM): 0%
